By Kd is commonly meant the constant that tells how readily two partners part at equilibrium.

Data on 102 compounds can be found in PubChem BioAssay AID1552 (Sanford-Burnham Center for Chemical Genomics, 2009).

Active and inactive are the calls of the source. The rule behind the calls is not given here.

This experiment addresses Ubiquitin-conjugating enzyme E2 N (Homo sapiens) (UniProt P61088). In words: UBE2N binders by NMR, biophysical, purified protein (AID 1552). The following applies: NMR binding to purified UBE2N.

Ubiquitin-conjugating enzyme E2 N (Homo sapiens), sequence (P61088 whole entry, looked up): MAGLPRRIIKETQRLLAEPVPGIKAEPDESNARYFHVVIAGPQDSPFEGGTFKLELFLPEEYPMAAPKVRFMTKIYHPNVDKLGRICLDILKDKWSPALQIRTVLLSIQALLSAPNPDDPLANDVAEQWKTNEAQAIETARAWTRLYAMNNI

Regarding `CN(C)CCNC(CC(=O)Nc1ccccc1)C(=O)O` (configuration not stated), the Kd is > 4 mM (inactive). To `O=C(Nc1ccncc1)Nc1ccc(F)cc1F` belongs > 4 mM (inactive). To `Cc1nc(NC2=NCCC(=O)N2)nc2ccccc12` belongs > 4 mM (inactive); to `O=C(Nn1cnnc1)c1ccccc1-c1ccccc1`, > 4 mM (inactive). In the case of `COc1ccccc1NC(=O)c1snnc1C`, the Kd was > 4 mM (inactive).

In the case of `NC(=O)c1cc(Cl)c(C(N)=O)cc1Cl`, the Kd is > 4 mM (inactive).

On to `Nc1nc(SCc2ccccc2)ns1`, for which the Kd is > 4 mM (inactive). The figure for `O=C(O)CCn1cncn1` is > 4 mM (inactive). Regarding `Cc1occc1C(=O)Nc1nnc(-c2ccncc2)s1`, the Kd is > 4 mM (inactive). The figure for `S=C(NC1=NCCS1)Nc1ccccc1` is > 4 mM (inactive); for `COC1C(O)C(O[C@H]2CC[C@]3(C=O)C4C(CC[C@]3(O)C2)[C@@]2(O)CC[C@H](C3=CC(=O)OC3)[C@@]2(C)C[C@H]4OC(C)=O)OC(C)C1OC(C)=O` (some centres not stated) it is > 4 mM (inactive); for `O=C(Nc1nnc(-c2ccncc2)o1)c1cccs1` it is > 4 mM (inactive). `CC1CN=C(Nc2ccccc2)S1` (configuration not stated): the Kd is > 4 mM (inactive). The figure for `CC(=O)Nc1cc(C(N)=O)cc(C(N)=O)c1` is > 4 mM (inactive); for `CC(=O)Nc1ccc(CN2CCOCC2)cc1` it is > 4 mM (inactive); for `NCC(O)c1ccc(O)cc1` (configuration not stated) it is > 4 mM (inactive). To `Cc1oc2nc3c(c(=O)[nH]c(=O)n3C)n2c1C` belongs > 4 mM (inactive). The figure for `CCN1CCc2c(sc(N)c2C(N)=O)C1` is > 4 mM (inactive). As for `Nc1cccc2cccnc12`, the Kd is > 4 mM (inactive). As for `Cc1ccc(N2CCN(C(=O)c3ccccc3)CC2)c(C)c1`, the Kd is > 4 mM (inactive). The figure for `CC(=O)C1=C(O)C(=O)NC1c1ccccc1` (configuration not stated) is > 4 mM (inactive); for `COC(=O)CSc1ncnc2c(C)csc12` it is > 4 mM (inactive).

Consider `C[C@@H]1O[C@@H](O[C@H]2CC[C@]3(C=O)C4CC[C@]5(C)[C@@H](C6=CC(=O)OC6)CC[C@]5(O)C4CC[C@]3(O)C2)[C@H](O)[C@H](O)[C@H]1O` (some centres not stated), for which the Kd is > 4 mM (inactive).

With `CNC(=O)c1cccc(NC(=S)NC)c1`, the Kd was > 4 mM (inactive). The figure for `CC(=O)c1cnc2nc(C(F)(F)F)nn2c1C` is > 4 mM (inactive); for `CCOC(=O)c1ccc(F)cc1F` it is > 4 mM (inactive). The figure for `O=C(O)CCN1CCc2ccccc2C1c1ccncc1` (configuration not stated) is > 4 mM (inactive). The figure for `O=c1ccc2c([nH]1)CCCC2` is > 4 mM (inactive); for `O=C1CCNc2cc3ccccc3cc21` it is > 4 mM (inactive). Consider `CSc1ccccc1C(=O)N1CCOCC1`, for which the Kd was > 4 mM (inactive). The figure for `CC(=O)Oc1ccc2c(c1OC(C)=O)OCC1(O)Cc3c(cc(OC(C)=O)c(OC(C)=O)c3OC(C)=O)C21` (configuration not stated) is > 4 mM (inactive). To `CCOC(=O)c1cnc2cc(C)nn2c1C` belongs > 4 mM (inactive); to `C=CC1=C(C)/C(=C/c2[nH]c(Cc3[nH]c(/C=C4\NC(=O)C(C)=C4C=C)c(C)c3CCC(=O)O)c(CCC(=O)O)c2C)NC1=O`, > 4 mM (inactive); to `CC1(C)C(=O)C=C[C@@]2(C)C1C=C[C@]1(C)C2CC[C@@]2(C)[C@H](c3ccoc3)OC(=O)C3OC321` (some centres not stated), > 4 mM (inactive). For the compound `CC(=O)Nc1ccncc1NC(C)=O`, the Kd is > 4 mM (inactive). Take `C=CCNC(=O)c1nn2cccnc2c1Cl`: the Kd is > 4 mM (inactive). The figure for `NC(=O)c1cccc(N2C(=O)C=CC2=O)c1` is > 4 mM (inactive); for `CC(C)c1ccccc1NC(=O)c1cnccn1` it is > 4 mM (inactive). To `O=C(Nc1nncs1)c1c(F)cccc1F` belongs > 4 mM (inactive); to `CCOC(=O)c1c(C)nc2ccccn12`, > 4 mM (inactive). For the compound `O=C(O)c1cncc(-c2ccccc2)c1`, the Kd is > 4 mM (inactive). The figure for `COC(=O)C(O)c1ccccc1` (configuration not stated) is > 4 mM (inactive); for `Nc1ccc(-n2cccc2)cc1` it is > 4 mM (inactive); for `C=C1CCC2C(CC2(C)C)C(=C)CC/C1=N/O` (configuration not stated) it is > 4 mM (inactive). The figure for `O=c1[nH]c(=S)[nH]c2c1CCC2` is > 4 mM (inactive); for `O=C1NC(=S)S/C1=C/c1ccncc1` it is > 4 mM (inactive); for `NC1=NC(=O)C(CC(=O)Nc2ccccc2F)S1` (configuration not stated) it is > 4 mM (inactive). The figure for `Cc1cc(=O)n2[nH]c(C)cc2n1` is > 4 mM (inactive).

In the case of `O=S(=O)(Cc1ccccc1Cl)Nc1ccccn1`, the Kd was > 4 mM (inactive).

With `Cc1nc(-c2ccccc2)ncc1C(=O)O`, the Kd was > 4 mM (inactive). To `COC(=O)Cn1c2ccccc2c2nc(C)sc21` belongs > 4 mM (inactive); to `O=C(Nc1ccccc1[N+](=O)[O-])c1ccc(=O)[nH]n1`, > 4 mM (inactive); to `Cc1ccc(OCC(=O)n2cnnc2N)c(C)c1`, > 4 mM (inactive). To `CC(C)(OC(=O)c1ccccc1)[C@@H]1Cc2cc3ccc(=O)oc3cc2O1` belongs > 4 mM (inactive); to `Cn1c(CN)nc2ccccc21`, > 4 mM (inactive); to `Nc1nc(-c2ccc(F)c(F)c2)cs1`, > 4 mM (inactive). The figure for `CSc1nc2nccc(N)n2n1` is > 4 mM (inactive). Turning to `C=C(C)[C@@H]1CC[C@]2(CO)CC[C@]3(C)[C@H](CCC4[C@@]5(C)CC[C@H](O)C(C)(C)C5CC[C@]43C)C12` (some centres not stated), the Kd is > 4 mM (inactive). The figure for `CC(=O)Nc1ccc(Cl)c(C(N)=O)c1` is > 4 mM (inactive). To `CC(C)(O)CC[C@@H](O)[C@](C)(O)C1CC[C@@]2(O)C3=CC(=O)C4C[C@@H](O)[C@@H](O)C[C@]4(C)C3CC[C@]12C` (some centres not stated) belongs > 4 mM (inactive); to `O=C(O[C@@H]1Cc2c(O)cc(O)cc2O[C@@H]1c1cc(=O)c(O)c2c(O)c(O)cc([C@H]3Oc4cc(O)cc(O)c4C[C@H]3O)c2c1)c1cc(O)c(O)c(O)c1`, > 4 mM (inactive).

With `OCc1ccc(Oc2ccccc2)nc1`, the Kd is > 4 mM (inactive). The figure for `CC(=O)NC1=NN(c2ccccc2)C(=O)C1` is > 4 mM (inactive); for `COC(=O)c1ccc(C(=S)N2CCOCC2)cc1` it is > 4 mM (inactive); for `O=C(CSc1ncn[nH]1)c1ccc2c(c1)OCO2` it is > 4 mM (inactive). To `O=c1cc(O)nc(SCc2ccccc2)[nH]1` belongs > 4 mM (inactive). To `Cn1c(SCC(N)=O)nc2c1c(=O)[nH]c(=O)n2C` belongs > 4 mM (inactive). As for `Nc1ncc2[nH]cnc2n1`, the Kd is > 4 mM (inactive). In the case of `O=C(NCc1ccccc1)c1cnsn1`, the Kd was > 4 mM (inactive). The figure for `Clc1ncnc2[nH]ncc12` is > 4 mM (inactive). To `CC[C@]12CCCN3CCc4c(n(c5ccccc45)[C@](O)(C(=O)OC)C1)[C@@H]32` belongs > 4 mM (inactive). Take `Cc1cc(C)nc(Nc2n[nH]c(Cc3ccccc3)n2)n1`: the Kd was > 4 mM (inactive). The figure for `O=C(CN1CCOCC1)Nc1nccs1` is > 4 mM (inactive); for `Cc1cc(C(=O)Nc2cccnc2)cs1` it is > 4 mM (inactive). The figure for `Cn1nc(C(=O)NCc2cccnc2)c2ccccc2c1=O` is > 4 mM (inactive). To `CC(=O)Nc1cccc(-c2nnc3n2CC(C)S3)c1` (configuration not stated) belongs > 4 mM (inactive).

For the compound `O=C1OCCC1Sc1nc2ccccc2c(=O)[nH]1` (configuration not stated), the Kd was > 4 mM (inactive). To `O=C(O)CCCCC1SCC2NC(=O)NC21` (configuration not stated) belongs > 4 mM (inactive).

Take `CCn1nnc2c(NCc3ccccn3)ncnc21`: the Kd was > 4 mM (inactive).

With `O=c1[nH]cc(NCc2ccccc2)c(=O)[nH]1`, the Kd is > 4 mM (inactive). The figure for `Cc1cc(C)n2c(SCc3cccs3)nnc2n1` is > 4 mM (inactive); for `COCC(=O)OCn1nnc2ccccc2c1=O` it is > 4 mM (inactive). The figure for `OC(c1ccccc1)c1ccccn1` (configuration not stated) is > 4 mM (inactive).

`c1ccc2c(c1)CN1CCCC1=N2`: the Kd was > 4 mM (inactive).

On to `OCCCc1nc2ccc(C(F)(F)F)cc2[nH]1`, for which the Kd is > 4 mM (inactive). To `Cc1nnsc1C(=O)Nc1cccc(S(N)(=O)=O)c1` belongs > 4 mM (inactive); to `CN1CCN(c2ncnc3nc[nH]c23)CC1`, > 4 mM (inactive). `O=c1[nH]cc(S(=O)(=O)Nc2ccccc2)c(=O)[nH]1`: the Kd was > 4 mM (inactive).

As to `Cc1cc(C)n(S(=O)(=O)c2cc(C)c(C)cc2C)n1`, the Kd was > 4 mM (inactive). The figure for `CC(=O)Nc1ccc(S(=O)(=O)NCC2CCCO2)cc1` (configuration not stated) is > 4 mM (inactive); for `CC(=O)Nc1ccc(NC(=O)c2ccnn2C)cc1` it is > 4 mM (inactive). To `O=CN1CCN(C(=O)c2ccc(F)cc2)CC1` belongs > 4 mM (inactive); to `CC(=O)c1cc(C)ccc1OC(=O)c1cccnc1`, > 4 mM (inactive); to `O=C(O)c1csc(-c2cccnc2)n1`, > 4 mM (inactive). To `O=C(NC(=S)NN1CCOCC1)c1cccs1` belongs > 4 mM (inactive); to `O=C(O)c1cc(=O)[nH]c2ccccc12`, > 4 mM (inactive). As for `Cn1c(=O)cc(N2CCCCC2)[nH]c1=O`, the Kd was > 4 mM (inactive). The figure for `NC1=NC(=O)/C(=C/c2ccc(O)c(Cl)c2)S1` is > 4 mM (inactive); for `CS(=O)(=O)NN=C1CCCCC1` it is > 4 mM (inactive); for `CCCS(=O)(=O)N1CCN(c2ccccc2F)CC1` it is > 4 mM (inactive). The figure for `Cn1cnc2c1c(=O)[nH]c(=O)n2C` is > 4 mM (inactive); for `Cc1c(CO)cnn1-c1ccccc1` it is > 4 mM (inactive).
